In patent US4008285A, “Process for making xylitol” (priority 1975, dated 1977):

Test: Solubility of galactitol (no method)
Type: physicochemical
Conditions: galactitol tends to crystallize with xylitol crystals; no solvent or temperature printed

SMILES: OC[C@@H](O)[C@H](O)[C@H](O)[C@@H](O)CO [galactitol]
- solubility: very low solubility
